Values after ≈ are worked out from the molar mass of the structure shown. Like-named read-outs stand apart in the source and are kept apart here.
Key:
Assay type in all cases: physicochemical
[1] = Crystal transformation experiment (suspension stirring, XRPD)
Protocol: Form A and Form B were mixed in equal amounts, and mixed in EA/Hep(1:1) to give a suspension, and XRPD test is performed after stirring at normal temperature (25° C.) for three days.

[2] = Solubility experiment of each crystalline form in water
[3] = Dynamic Vapor Sorption (DVS) / hygroscopicity test; details: for Humidity change (DVS): within the conventional storage humidity range
Protocol: Dynamic Vapor Sorption (DVS) test/Hygroscopicity test is a rapid measurement of the increase and loss of sample moisture caused by a flowing carrier gas with a set relative humidity (RH). The hygroscopicity of the sample is then determined by measuring the increase/decrease in the mass of the material to detect the adsorption/desorption of water vapor on a high-sensitivity, high-stability digital microbalance in a self-suspended state.
In the present invention, the test parameters of DVS are as follows: instrument model: SMS DVS Intrinsic; measurement temperature 25° C., 0-95% RH.

| SMILES | Stability order of the three crystalline forms [1] | Solubility ([2]; Pure water) [µg/mL] | Solubility ([2]; water, pH 2.01, aqueous buffer, thermodynamic from solid, pH 2.01, read-out: Solubility) [µg/mL] | Solubility ([2]; water, pH 4.59, aqueous buffer, thermodynamic from solid, pH 4.59, read-out: Solubility) [µg/mL] | Solubility ([2]; water, pH 6.74, aqueous buffer, thermodynamic from solid, pH 6.74, read-out: Solubility) [µg/mL] | Change in hygroscopicity (weight change, DVS) ([3]; 0-95% relative humidity, 25° C.) | Solubility ([2]; pH 2.01) [µg/mL] | Solubility ([2]; pH 4.59) [µg/mL] | Solubility ([2]; pH 6.74) [µg/mL] | Humidity change (DVS) [3] [%] | Crystal form transformation ([1]; metastable crystalline) | Solubility compared with other form ([2]; in water, Form C becomes Form B after being transformed) |
| --- | --- | --- | --- | --- | --- | --- | --- | --- | --- | --- | --- | --- |
| COc1cc2c(cc1OC)C(=O)C(CC1(F)CCN(Cc3ccccc3F)CC1)C2 (single isomer, unassigned) [Form A] | Form A>Form B>Form C | 140 (≈ 0.337 mM) | 12400 (≈ 29.7 mM) | 1860 (≈ 4.48 mM) | 140 (≈ 0.337 mM) | about 0.6% | – | – | – | – | – | – |
| COc1cc2c(cc1OC)C(=O)C(CC1(F)CCN(Cc3ccccc3F)CC1)C2 (single isomer, unassigned) [Form B] | Form A>Form B>Form C | 8.9 (≈ 0.0214 mM) | – | – | – | – | 20500 (≈ 49.3 mM) | 2790 (≈ 6.72 mM) | 180 (≈ 0.433 mM) | 1 | – | – |
| COc1cc2c(cc1OC)C(=O)C(CC1(F)CCN(Cc3ccccc3F)CC1)C2 (single isomer, unassigned) [Form C] | Form A>Form B>Form C | – | – | – | – | – | – | – | – | 1.2 | transfers to Form B | the same as Form B |

Source: patent US12590061B2, “Crystalline form of acetylcholinesterase inhibitor and preparation method therefor and application thereof” (SHANGHAI INSTITUTE OF MATERIA MEDICA, CHINESE ACADEMY OF …, priority 2019, dated 2026)
